Data as given in patent US20090012085A1, “DOSAGE FORMS AND METHODS OF TREATMENT USING A TYROSINE KINASE INHIBITOR” (priority 2005, published 2009).
Where two headings read alike, the source gives them in different places.

Test: Phase I dose-escalating study, plasma pharmacokinetics in patients with solid tumor
Type: in vivo, human
Settings: human, plasma; for concentration at 3 h: nominal time 3 h; for concentration at 6 h: nominal time 6 h; for concentration at 8 h: nominal time 8 h; for concentration at 10 h: nominal time 10 h; for concentration at 4 h: nominal time 4 h; for concentration at 0 h: nominal time 0 h; for concentration at 1 h: nominal time 1 h; for concentration at 2 h: nominal time 2 h; for concentration at 20 h: nominal time 20 h; for concentration at 48 h: nominal time 48 h; for concentration at 72 h: nominal time 72 h; for concentration at 96 h: nominal time 96 h; for concentration at 144 h: nominal time 144 h; for AUC(0-t): read-out: AUC(0-24), mean (% CV); for Cmax: read-out: Cmax, mean (% CV); for Tmax: read-out: tmax, mean (% CV); for half-life: read-out: t½, mean (% CV) (converted)
Method: Cmax values, or maximum total plasma concentrations, of a compound of formula 1 can be measured according to techniques well known to those skilled in the art. For example, after a compound of formula 1 has been administered to a mammal, blood samples can be taken at fixed time points over a period of time (e.g. 24 hours) and the serum or plasma concentration of compound of formula 1 can be measured using standard analytical techniques known in the art. In vivo determinations Cmax can then be made by plotting the serum or plasma concentration of compound of formula 1 along the ordinate (y-axis) against time along the abscissa (x-axis).
The maleate salt of compound 1 was administered to human patients with solid tumor malignancies not amenable to conventional therapies in a Phase I dose-escalating multicenter study. The types of tumor malignancies included colorectal carcinoma, renal cell carcinoma, esophageal carcinoma, thymus carcinoma, mastocytosis, lung cancer and multiple endocrine neoplasia type II. Patients were treated in cohorts of 6 with escalating QD (once per day) doses of the maleate salt of compound 1 under fasting conditions. Each study cycle of 5 weeks consisted of 4 weeks of treatment followed by 1 week of rest (4/1 schedule), or continuous dosing without any rest period.
Full pharmacokinetic profiles were collected on Cycle 1 Day 1 (C1D1), Cycle 1 Day 28 (C1D28), and Cycle 2 Day 28 (C2D28). Preliminary pharmacokinetic parameters for the first 44 patients, i.e. the first 7 dosing groups, were estimated using nominal collection times and quality-controlled, non-quality assured bioanalytical data. The dosage amounts in Table 1A and Table 1B are free base equivalent amounts.

[1] = 150 mg QD, 150 mg QD 4/1 (n = 5), read-out: Mean plasma concentration following the last dose on cycle 1 day 28
[2] = 150 mg QD, 150 mg QD Continuous (n = 6), read-out: Mean plasma concentration following the last dose on cycle 1 day 28
[3] = 150 mg, 150 mg QD 4/1 (n = 5), read-out: Mean plasma concentration following the last dose on cycle 1 day 28
[4] = 150 mg, 150 mg QD (4/1), C1D1 (n = 7)
[5] = 150 mg, 150 mg QD (4/1), C1D28 (n = 5)
[6] = 150 mg, 150 mg QD (4/1), C2D28 (n = 4)
[7] = 150 mg, 150 mg QD Continuous (n = 6), read-out: Mean plasma concentration following the last dose on cycle 1 day 28
[8] = 200 mg QD, 200 mg QD 4/1 (n = 5), read-out: Mean plasma concentration following the last dose on cycle 1 day 28
[9] = 200 mg, 200 mg QD 4/1 (n = 5), read-out: Mean plasma concentration following the last dose on cycle 1 day 28
[10] = 200 mg, 200 mg QD (4/1), C1D1 (n = 6)

SMILES: Cc1[nH]c(/C=C2\C(=O)Nc3ccc(F)cc32)c(C)c1C(=O)NC[C@H](O)CN1CCOCC1 [compound 1, 5-[(Z)-(5-fluoro-2-oxo-1,2-dihydro-3H-indol-3-ylidene)methyl]-N-[(2S)-2-hydroxy-3-morpholin-4-ylpropyl]-2,4-dimethyl-1H-pyrrole-3-carboxamide]
- concentration at 3 h [1]: 268 ng/mL
- concentration at 6 h [1]: 161 ng/mL
- concentration at 8 h [1]: 142 ng/mL
- concentration at 10 h [1]: 132 ng/mL
- concentration at 3 h [2]: 407 ng/mL
- concentration at 4 h [2]: 519 ng/mL
- concentration at 6 h [2]: 471 ng/mL
- concentration at 8 h [2]: 404 ng/mL
- concentration at 10 h [2]: 345 ng/mL
- concentration at 0 h [3]: 99.8 ng/mL
- concentration at 1 h [3]: 184 ng/mL
- concentration at 2 h [3]: 252 ng/mL
- concentration at 4 h [3]: 231 ng/mL
- concentration at 20 h [3]: 42.9 ng/mL
- concentration at 24 h (150 mg, 150 mg QD 4/1 (n = 5), nominal time 24 h, read-out: Mean plasma concentration following the last dose on cycle 1 day 28): 94.8 ng/mL
- concentration at 48 h [3]: 31.2 ng/mL
- concentration at 72 h [3]: 9.08 ng/mL
- concentration at 96 h [3]: 4.17 ng/mL
- concentration at 144 h [3]: 1.52 ng/mL
- AUC(0-t) [4]: 3370 ng·h/mL
- concentration at 24 h (150 mg, 150 mg QD (4/1), C1D1 (n = 7), read-out: C(trough, 24 h), mean (% CV)): 81.7 ng/mL
- Cmax [4]: 421 ng/mL
- Tmax [4]: 1.6 h
- half-life [4]: 13.6 h
- AUC(0-t) [5]: 2960 ng·h/mL
- concentration at 24 h (150 mg, 150 mg QD (4/1), C1D28 (n = 5), read-out: C(trough, 24 h), mean (% CV)): 75.8 ng/mL
- Cmax [5]: 299 ng/mL
- Tmax [5]: 1.8 h
- half-life [5]: 19.3 h
- AUC(0-t) [6]: 3090 ng·h/mL
- concentration at 24 h (150 mg, 150 mg QD (4/1), C2D28 (n = 4), read-out: C(trough, 24 h), mean (% CV)): 54.6 ng/mL
- Cmax [6]: 269 ng/mL
- Tmax [6]: 3 h
- half-life [6]: 13.2 h
- concentration at 0 h [7]: 124 ng/mL
- concentration at 1 h [7]: 244 ng/mL
- concentration at 2 h [7]: 453 ng/mL
- concentration at 20 h [7]: 104 ng/mL
- concentration at 24 h (150 mg, 150 mg QD Continuous (n = 6), nominal time 24 h, read-out: Mean plasma concentration following the last dose on cycle 1 day 28): 271 ng/mL
- concentration at 3 h [8]: 396 ng/mL
- concentration at 4 h [8]: 441 ng/mL
- concentration at 6 h [8]: 463 ng/mL
- concentration at 8 h [8]: 349 ng/mL
- concentration at 10 h [8]: 361 ng/mL
- concentration at 0 h [9]: 353 ng/mL
- concentration at 1 h [9]: 408 ng/mL
- concentration at 2 h [9]: 408 ng/mL
- concentration at 20 h [9]: 189 ng/mL
- concentration at 24 h (200 mg, 200 mg QD 4/1 (n = 5), nominal time 24 h, read-out: Mean plasma concentration following the last dose on cycle 1 day 28): 259 ng/mL
- concentration at 48 h [9]: 87.6 ng/mL
- concentration at 72 h [9]: 31.4 ng/mL
- concentration at 96 h [9]: 13 ng/mL
- concentration at 144 h [9]: 4.77 ng/mL
- AUC(0-t) [10]: 3440 ng·h/mL
- concentration at 24 h (200 mg, 200 mg QD (4/1), C1D1 (n = 6), read-out: C(trough, 24 h), mean (% CV)): 147 ng/mL
- Cmax [10]: 262 ng/mL
- Tmax [10]: 8.7 h
